From patent US20250188030A1, “Biphenyl and Phenylpyridine Compounds” (Pfizer Inc., priority 2023, published 2025)
Read-outs that look alike come from different tables or passages of the source.

How the values were obtained:
KAT2A = KAT2A (Homo sapiens (Human), UniProt Q92830); experiment: KAT2A acetyltransferase biochemical assay (RapidFire mass spectrometry, AcCoA to CoA); conditions: read-out: KAT2A Ki at 1 μM AcCoA, 5 μM H3 1-21 peptide, 0.5 nM KAT2A, 90-minute reaction
MM.1S cells = experiment: MM1.S 10 Day Proliferation Assay (CellTiter-Glo); type: cell-based, Human
Protocol: Human B lymphoblast cell line MM.1S was obtained from American Type Culture Collection (ATCC), Manassas, VA USA, Cat. MM.1S (ATCC® CRL-2974™). Cells were cultured in RPMI (Thermo Fisher Scientific/Gibco Life Technologies Cat. #111875-093) plus 10% (v/v) FBS (Thermo Fisher Scientific/Gibco Life Technologies Cat. #26140-079) and 1% Penicillin-Streptomycin (Thermo Fisher Scientific/Gibco Life Technologies Cat. #15070063) at 37° C. in 5% CO2.
MM1.S cells were trypsinized cell viability count performed, and cells suspended in complete media at 5,556 cells/ml. Cells were then seeded (90 μl/well) into a 96-well round black/clear bottom, ULA (Ultra-Low Attachment surface plate (Corning cat #4520) at a density of 500 cells/well. Cells were then incubated for 16 hours at 37° C. and 5% CO2. Compound dilution plates were prepared in 96-well, clear U-bottom, polypropylene plates (Corning 3365) in 100% DMSO at 10 mM stock concentration in duplicate wells, using a 10-point serial dilution (1:3 dilutions). Compounds were diluted to 1:100 in growth medium. Then 10 μl of diluted compounds were added to each well of the cell plates using a Beckman FX liquid handling system such that the highest compound concentration tested was 10 μM final, with a 0.1% final DMSO concentration in the total volume of 100 μl. Plates were incubated for 10 total days at 37° C. and 5% CO2. Fresh media containing compound was refreshed at 5 days treatment.
Finally, the treatment plates were removed from the incubator and 100 μl of CellTiter-Glo Luminescent reagent was added to each well, and plates were equilibrated in the dark for 30 minutes. Plates were read on the PHERAstar plate reader using the 96-well with Luminescent reading mode. IC50 values were calculated using a four-parameter fit with GraphPad Prism version 9.5.1 or in house modified IDBS ActivityBase data analyzing package.

H3K9AC (HT1080 cells) = experiment: H3K9AC Sandwich ELISA Assay in HT1080 cells (KAT2A primary cell-based screening assay); parameters: species or system Human
Outline: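 HT1080 fibrosarcoma cells seeded 16 h, then treated 24 h at 37 °C with 10-point 1:3 compound dilutions (top 10 µM final, 0.1% DMSO). Acid lysates neutralized with butyrate/PMSF; H3K9ac measured by total-H3-capture sandwich ELISA with luminescent HRP readout, IC50 by four-parameter fit.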

[1] = Homo sapiens, HT-1080, H3K9AC sandwich ELISA

Chain of KAT2A (Q92830 whole entry): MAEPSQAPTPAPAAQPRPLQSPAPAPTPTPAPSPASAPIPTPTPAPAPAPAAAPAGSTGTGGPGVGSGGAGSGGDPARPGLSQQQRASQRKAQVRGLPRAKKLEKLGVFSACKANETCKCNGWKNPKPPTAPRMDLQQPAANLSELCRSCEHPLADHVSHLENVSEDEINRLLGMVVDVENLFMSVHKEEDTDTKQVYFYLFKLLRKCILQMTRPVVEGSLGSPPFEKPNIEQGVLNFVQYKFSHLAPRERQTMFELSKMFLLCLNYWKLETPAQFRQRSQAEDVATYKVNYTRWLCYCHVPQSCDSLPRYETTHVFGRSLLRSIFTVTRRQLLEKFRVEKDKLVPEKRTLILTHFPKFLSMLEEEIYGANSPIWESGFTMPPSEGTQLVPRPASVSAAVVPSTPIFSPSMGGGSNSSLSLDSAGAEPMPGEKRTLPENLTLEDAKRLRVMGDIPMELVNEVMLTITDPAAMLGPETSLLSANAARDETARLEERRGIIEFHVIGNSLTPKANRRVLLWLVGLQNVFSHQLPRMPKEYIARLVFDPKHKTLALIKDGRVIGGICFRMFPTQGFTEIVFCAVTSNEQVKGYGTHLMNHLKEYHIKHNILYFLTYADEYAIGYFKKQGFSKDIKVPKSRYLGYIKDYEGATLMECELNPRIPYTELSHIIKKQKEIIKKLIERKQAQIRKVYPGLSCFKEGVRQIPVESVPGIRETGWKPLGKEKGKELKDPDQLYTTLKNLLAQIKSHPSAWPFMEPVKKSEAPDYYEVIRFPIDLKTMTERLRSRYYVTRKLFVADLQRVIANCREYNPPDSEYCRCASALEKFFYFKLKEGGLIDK

Row | SMILES | Ki (KAT2A) [nM] | IC50 (MM.1S cells; Homo sapiens, MM1.S, 240 h) [nM] | IC50 (H3K9AC (HT1080 cells); [1]) [nM] | IC50 (H3K9AC (HT1080 cells); H3K9AC sandwich ELISA) [nM] | IC50 (MM.1S cells) [nM]
1 | CC1(C)C[C@](F)(C(=O)N[C@@H]2CC[C@@H](Oc3ccc(C(C)(C)C(=O)O)cc3-c3cccc(F)c3C3CCC3)C2)CN1 (single isomer, unassigned) [Example A4] | 4.12 | 147 | 76.4 | – | –
2 | O=C(O)Cc1ccc(O[C@@H]2CC[C@@H](NC(=O)[C@@]3(F)CNC4(CCC4)C3)C2)c(-c2cccc(F)c2C2CCC2)c1 (single isomer, unassigned) [Example A7] | 1.25 | 30.9 | 4.45 | – | –
3 | CC[C@](C)(C(=O)O)c1ccc(O[C@@H]2CC[C@@H](NC(=O)[C@]3(F)CNC4(CCC4)C3)C2)c(-c2cccc(F)c2C2CCC2)c1 (single isomer, unassigned) [Example A9] | 0.84 | – | – | 11.1 | 135
4 | CC[C@](C)(C(=O)O)c1ccc(O[C@@H]2CC[C@@H](NC(=O)[C@]3(F)CNC4(CCC4)C3)C2)c(-c2cccc(F)c2C2CCC2)c1 (single isomer, unassigned) [Example A12] | 1.78 | – | – | 28.8 | 368
5 | CC1(C)C[C@@](F)(C(=O)N[C@@H]2CC[C@@H](Oc3ccc(C(=O)O)cc3-c3cccc(F)c3C3CCC3)C2)CN1 (single isomer, unassigned) [Example A14] | 1.32 | 157 | – | 4.88 | –

Results, then the compound that gave them:

Row | Ki (KAT2A) [nM] | IC50 (MM.1S cells; Homo sapiens, MM1.S, 240 h) [nM] | IC50 (H3K9AC (HT1080 cells); [1]) [nM] | IC50 (H3K9AC (HT1080 cells); H3K9AC sandwich ELISA) [nM] | IC50 (MM.1S cells) [nM] | SMILES
6 | 6.29 | 359 | 63.8 | – | – | CN1CC2(CCCC2)C[C@H]1C(=O)N[C@@H]1CC[C@@H](Oc2cccc(C(=O)NS(C)(=O)=O)c2-c2cccc(F)c2C2CCC2)C1 (atropisomer, axis not shown) [Example I10, (3ξ)-N-[(1R,3R)-3-({(1ψ)-2′-cyclobutyl-3′-fluoro-6-[(methanesulfonyl)carbamoyl][1,1′-biphenyl]-2-yl}oxy)cyclopentyl]-2-methyl-2-azaspiro[4.4]nonane-3-carboxamide]
7 | 25 | 238 | 24.5 | – | – | CN1CC(C)(C)C[C@H]1C(=O)N[C@@H]1CC[C@@H](Oc2cccc(C(=O)NS(=O)(=O)N3CCC3)c2-c2cccc(F)c2C2CCC2)C1 (atropisomer, axis not shown) [Example I13, N-[(1R,3R)-3-({(1ψ)-6-[(azetidine-1-sulfonyl)carbamoyl]-2′-cyclobutyl-3′-fluoro[1,1′-biphenyl]-2-yl}oxy)cyclopentyl]-1,4,4-trimethyl-L-prolinamide]
8 | 33.9 | 69.3 | 18.1 | – | – | CCN(C)S(=O)(=O)NC(=O)c1cccc(O[C@@H]2CC[C@@H](NC(=O)[C@@H]3CC(C)(C)CN3C)C2)c1-c1cccc(F)c1C1CCC1 (atropisomer, axis not shown) [Example I14, N-[(1R,3R)-3-{[(1ψ)-2′-cyclobutyl-6-{[ethyl(methyl)sulfamoyl]carbamoyl}-3′-fluoro[1,1′-biphenyl]-2-yl]oxy}cyclopentyl]-1,4,4-trimethyl-L-prolinamide]
9 | 0.03 | 31.1 | – | 5.8 | – | CC(C)S(=O)(=O)NC(=O)Cc1cccc(O[C@@H]2CC[C@@H](NC(=O)[C@@]3(F)CNC4(CCC4)C3)C2)c1-c1cccc(F)c1C1CCC1 (atropisomer, axis not shown) [Example I16, (7S)-N-[(1R,3R)-3-({(1ψ)-2′-cyclobutyl-3′-fluoro-6-[2-oxo-2-(propane-2-sulfonamido)ethyl][1,1′-biphenyl]-2-yl}oxy)cyclopentyl]-7-fluoro-5-azaspiro[3.4]octane-7-carboxamide]
10 | 0.02 | 1.8 | – | 0.6 | – | CN(C)S(=O)(=O)NC(=O)Cc1cccc(O[C@@H]2CC[C@@H](NC(=O)[C@@]3(F)CNC4(CCC4)C3)C2)c1-c1cccc(F)c1C1CCC1 (atropisomer, axis not shown) [Example I17, (7S)-N-[(1R,3R)-3-({(1ψ)-2′-cyclobutyl-6-[2-(dimethylsulfamamido)-2-oxoethyl]-3′-fluoro[1,1′-biphenyl]-2-yl}oxy)cyclopentyl]-7-fluoro-5-azaspiro[3.4]octane-7-carboxamide]
